Source: US11591306B2, “Vitamin E-based amphipathic compound, and use thereof” (Industry-University Cooperation Foundation Hanyang …, priority 2017, dated 2023)

How the values were obtained:
[1] = target: T1, β2AR (Homo sapiens, UniProt P07550); experiment: β2AR stability, [3H]-dihydroalprenolol (DHA) ligand binding; details: CMC+0.2 wt %, 10 days at room temperature
T1 construct: made in house; host or cells: Sf9 insect cells, baculovirus
Method: A receptor was expressed in Sf9 insect cells infected with Baculovirus and solubilized in 1% DDM. The DDM-solubilized receptor was purified by alprenolol-sepharose in the presence of 0.01% cholesteryl succinate (CHS). β2AR purified by DDM was diluted with a buffer containing DDM or VEGs (VEG-1, VEG-2, VEG-3 and VEG-5) to reach the final concentration of CMC+0.2 wt %. β2AR solubilized in each compound was stored for 10 days at room temperature, and the ligand binding ability of the receptor was measured at regular intervals by incubating the receptor with 10 nM radioactive [^3H]-dihydroalprenolol (DHA) for 30 minutes at room temperature. The mixture was loaded into a G-50 column, and a supernatant was collected using a certain amount of binding buffer (supplemented with […] pH 7.5, 100 mM NaCl, 0.5 mg/ml BSA). In addition, a 15 ml scintillation fluid was added. Receptor-binding [^3H]-DHA was measured using a scintillation counter (Beckman).

[2] = Hydrodynamic radius of micelles by dynamic light scattering (DLS); type: physicochemical; details: at 1.0 wt %
Method: A method of measuring the radius of a micelle is not particularly limited, but may be a method well known in the art, for example, dynamic light scattering (DLS).
(§1) To identify the properties of VEGs synthesized according to the synthetic methods of Preparation Examples 1 to […] molecular weights (M.W.) and critical micellar concentrations (CMCs) of VEGs, and the hydrodynamic radii (Rh) of formed micelles were measured.
(§2) Specifically, the CMCs were measured using hydrophobic fluorescence staining and diphenylhexatriene (DPH), and the hydrodynamic radii (Rh) of the micelles formed by each formulation were measured by dynamic light scattering (DLS).

[3] = Critical micelle concentration by hydrophobic fluorescence staining with diphenylhexatriene (DPH); type: physicochemical; details: aqueous solution
Method: A method of measuring CMC is not particularly limited, and may be a method widely known in the art, for example, fluorescent staining using diphenylhex riene (DPH).
as §1, §2

[4] = system: T2, LHI-RC complex; experiment: LHI-RC structural stability, UV-Vis absorbance at 875 nm; set-up: species or system R. capsulatus; details: CMC+0.04 wt % or CMC+0.2 wt %, 20 days at 25° C.
T2 construct: His tag (only implied by Ni2+-NTA capture and imidazole elution; put on M from own knowledge of pUHTM86Bgl); made in house; host or cells: R. capsulatus U43 [pUHTM86Bgl] membranes
Method: An experiment was conducted to evaluate the ability of VEGs to stabilize the structure of LHI-RC. The photosynthetic superassembly consists of a complex of light-Harvesting complex I (LHI) and a reaction center (RC). The structural stability of LHI-RC was measured by a method of monitoring the structure of a protein for 20 days using UV-Vis spectroscopy. As amphipathic molecules, all VEGs of the present invention and conventional amphipathic molecules DDM and OG were used, and the concentrations of the amphipathic molecules were measured at CMC+0.04 wt % (FIG. 5A) and CMC+0.2 wt % ([…]), and the stability of the LHI-RC protein was investigated according to the concentration of an amphipathic molecule.
Specifically, LHI-RC stability was measured using a method disclosed in the paper published in 2008 by the inventors (P. S. Chae et al., ChemBioChem 2008, 9, 1706-1709). […] A 10 mL aliquot of the solution of the frozen R. capsulatus membrane was homogenized using a glass homogenizer, and incubated with gentle stirring at 32° C. for 30 minutes. The homogenized membrane was treated with 1.0 wt % DDM for 30 minutes at 32° C. […] Protein stability was measured at regular intervals during the cubation by measuring UV-Vis spectra of the samples in the range of 650 to 950 nm. Protein integrity was evaluated by monitoring absorbance (A875) at 875 nm.

[5] = target: T3, MelBSt (melibiose permease) (Salmonella typhimurium, UniProt P30878); experiment: MelBSt extraction/solubilization and thermal stability, SDS-PAGE and Western blotting
T3 construct: made in house; host or cells: E. coli DW2 (ΔmelB and ΔlacZY), plasmid pK95ΔAHB/WT MelBSt/CH10
Method: Specifically, Salmonella typhimurium MelBSt (melibiose permease) having a 10 His tag at the C-terminus was expressed in E. coli DW2 cells (ΔmelB and ΔlacZY) using a pK95ΔAHB/WT MelBSt/CH10 plasmid. Cell growth and membrane preparation were carried out according to the methods disclosed in the paper written by A. S. Ethayathulla et al. (Nat. Commun. 2014, 5, 3009). A protein assay was performed using a Micro BCA kit (Thermo Scientific, Rockford, Ill.). MelBSt stability in VEGs or DDM was evaluated using the protocol disclosed in Nat. Methods 2010, 7, 1003-1008, written by P. S. Chae et al. A MelBSt-containing membrane sample (the final protein concentration was 10 mg/mL) was incubated in a solubilization buffer containing 1.5% (w/v) DDM or VEGs (50 mM sodium phosphate, pH 7.5, 200 mM NaCl, 10% glycerol, 20 mM melibiose) at two different temperatures (0 and 23° C.) for 90 minutes. To remove an insoluble material, ultracentrifugation was performed using a Beckman Optima™ MAX ultracentrifuge equipped with a TLA-100 rotor at 355,590 g and 4° C. for 30 minutes. […] The loaded samples were analyzed by SDS-15% PAGE, and then visualized by immunoblotting with a Penta-His-HRP antibody (Qiagen, Germantown, Md.).
To assess the thermal stability of MelBSt in various amphipathic molecules, MelBSt extracted with individual amphipathic molecules at 23° C. was subjected to additional thermal treatment at three different temperature (45, 55 and 65° C.) and ultracentrifugation, followed by SDS-15% PAGE and Western blotting. MelBSt was detected using a SuperSignalWest Pico chemiluminescent substrate by an ImageQuant LAS 4000 Biomolecular Imager (GE Healthcare Life Science).

Cc1c(C)c2c(c(C)c1OCC(=O)NC(CO[C@@H]1OC(CO)[C@@H](O[C@H]3OC(CO)[C@@H](O)[C@H](O)C3O)[C@H](O)C1O)CO[C@@H]1OC(CO)[C@@H](O[C@H]3OC(CO)[C@@H](O)[C@H](O)C3O)[C@H](O)C1O)CCC(C)(CCCC(C)CCCC(C)CCCC(C)C)O2 (stereo partly shown) [VEG-3]
Long-term β2AR activity ([3H]-DHA binding) [1]: consistently maintained during incubation for 10 days
Rh (nm), hydrodynamic radius of micelles [2]: 4.8 ± 0.1 nm
CMC [3]: ~0.002 mM
CMC (wt %) [3]: ~0.0002 wt %
Ability to maintain the integrity of the LHI-RC complex (A875) [4]: most excellent effect
MelBSt solubilization ability ([5]; 1.5 wt %, extracted at 23° C., then 65° C.): very excellent protein solubilization ability
MelBSt transporter solubilization ability in the thermal stability experiment ([5]; elevated temperatures (overall)): higher transporter solubilization ability than DDM
